From patent US20080146555A1, “Uses of Kinase Inhibitors and Compositions Thereof” (GPC Biotech, Inc, priority 2004, published 2008)

Key:
HCT-116 cells [1] = assay: Calcein AM viability assay, HCT-116; assay type: cell-based; settings: Homo sapiens
Method: (§1) The potency of the subject kinase inhibitors, as measured by loss of cellular viability, was determined with the Calcein AM assay (Molecular Probes). Calcein AM is a substrate of intracellular esterases, which is cleaved only in viable cells to generate a fluorescent product that can be quantified with a fluorescent plate reader. The fluorescent signal is proportional to the number of viable cells, and thus loss of signal in response to the exposure of cells to the subject kinase inhibitors correlates with a loss of viability. This assay not only distinguishes cell cycle arrest, in which cells may still by viable, from loss of viability, and is thus well suited for the evaluation of the subject kinase inhibitors. A compound that is a potent cytotoxic agent may cause significant loss of cell viability in such an assay.
(§2) Cellular IC50's were determined in the human colorectal carcinoma cell line, HCT-116, and the normal human fibroblast, IMR90. Protein adjusted IC50's were also determined in HCT-116. Results of such viability assays are presented in Table 2 (HCT-116 (viability/protein adjusted) and IMR-90). IC50's (μM, non-protein adjusted) for the viability assay against HCT-116 cells are shown for further compounds of the invention in Table 4.
(§3) HCT-116 or IMR90 cells were recovered from sub-confluent plates by trypsinization and 1,000 or 4,000 cells, respectively, were plated in 24-well dishes and incubated overnight at 37° C., 5% CO2. HCT-116 cells were cultured in RPMI-1640, 10% FCS, and IMR90 cells were cultured in Minimum Essential Medium-alpha, 10% FCS. After overnight incubation to allow adherence, the media was aspirated from each well and replaced with media containing a test compound at a concentration from 0 to 250 nM, spanning a total of 7 doses. The plates were returned to the incubator and cultured for an additional 72 hours (3 days). […] After 72-hours incubation with the test compound, the cells were washed twice with 1×PBS, taking special care to remove all residual buffer.
(§4) A 5 μM Calcein AM solution was prepared by dissolving a 50 μg aliquot of Calcein (Molecular Probes catalog #C3100) in 50 μl DMSO. After the Calcein had completely dissolved (10 minutes at room temperature), it was diluted into 10 ml PBS. Calcein/PBS (0.5 ml) was added to each well. The plates were incubated for 75 minutes at 37° C. (protected from light) and the fluorescent signal was read on a fluorescent plate reader (excitation 485/20 and emission 530/25).

[2] = test system: NCI panel of 60 cell lines; assay: cells; settings: Homo sapiens, 60 cell, 48 h, read-out: NCI panel MG-MID (Mean-Graph Mid-point, average IC50 over panel), 48 h, SRB; IC50 <10 nM counted as 10 nM
Text: (§5) The evaluation of compounds at the National Cancer Institute in their panel of 60 cell lines provides a wealth of information regarding efficacy in a wide range of tumor types and genetic backgrounds. Included within this panel are cell lines derived from leukemia, melanoma and cancers of the lung, colon, brain, ovary, breast, prostate and kidney. Use of this panel provides a measure of the efficacy of compounds in cells with alterations in many genes that are associated with neoplastic transformation including p53 and Her2/Neu as well as those involved in metabolism and those which confer multi-drug resistance. The data generated in these cell lines with the protocol described below can be used to evaluate the activity of compounds.
(§6) Cells were grown in RPMI-1640 10% FCS and plated in 96 well micro-titer plates at densities ranging from 5,000 to 40,000 cells/well. The plates were incubated for 24 hours at 37° C., 5% CO2 for 24 hours. Media containing twice the desired final concentration of the compound (5 doses spanning 4 logs) was prepared and 100 μl was added to each well containing 100 μl media plus cells to yield the desired final concentration. The plates were then incubated for an additional 48 hours.
(§7) The effect of the compound on cellular viability was determined with the Sulforhodamine B (SRB) assay, which measures total protein. Cells were fixed with cold TCA to a final concentration of 10% and incubated at 4° C. for 60 minutes. The supernatant was discarded and the plates were washed five times with water and air-dried. SRB solution at […] in 1% acetic acid was added to each well and the plates were incubated for 10 minutes at room temperature. The plates were washed five times with 1% acetic acid and air-dried. The bound stain was solubilized with 10 mM trizma base and the absorbance was read on a plate reader at […].

[3] = test system: adriamycin resistant cell line (ADR-res); assay: NCI panel, adriamycin resistant cell line, SRB assay; assay type: cell-based; settings: Homo sapiens, 48 h
Text: as §5, §6, §7

[4] = test system: normal human fibroblast, IMR90; assay: Calcein AM viability assay, IMR90; assay type: cell-based; settings: IMR-90, Calcein AM, 72 h
Method: as §1, §2, §3, §4

HCT-116 cells [5] = assay: Clonogenic survival assay with HCT-116 cells; assay type: cell-based; settings: Homo sapiens
Method: This assay was used to determine the concentration of a compound that results in irreversible loss of viability after a specified period of exposure. Essentially, cells are exposed to compound for a period of […], and are then transferred to compound-free growth medium. After continued incubation in the compound-free medium for a number of days, the number of colonies recovered is counted as an estimate of the number of surviving cells.
Media (RPMI-1640, 10% FCS, pen/strep) was pre-warmed to 37° C. in a water bath. Cells were incubated and grown at 37° C., 5% CO2. Cells were recovered by trypsinization from sub-confluent plates and counted using a hemocytometer. 1×10^4 cells were plated in 25 mls of media in a 15 cm tissue culture dish. […] were set up for each test compound, and were incubated overnight at 37° C. The compound was diluted into media at 7 concentrations and the media on the cells was replaced with that containing the test compound. Two plates were set up for each concentration of the compound to be tested, as well as two control plates without compound. Plates were incubated as above for […], media was removed and replaced with fresh media, and the plates were incubated an additional 7 days and washed with PBS. Colonies were stained with crystal violet solution (0.4% crystal violet, 20% ethanol) for 5 minutes, washed twice with distilled water, and counted.

1A9-PTX10 = assay: SRB cytotoxicity, tubulin mutated paclitaxel-resistant cells; assay type: cell-based, human; settings: Homo sapiens, 1A9/ptx-10; 72 h, SRB
Method: (§8) In these experiments, the P-glycoprotein expressing NCI-Adr resistant subline (Vickers et al., 1989. Mol Endocrinology 3 (1):157-164) was used. […] Briefly, cells were plated in 96 well dishes 24 hours prior to compound addition. Where noted, they were exposed to verapamil for 4 hours prior to compound addition and then throughout the treatment period (72 hours). The assay was terminated with the addition of cold TCA to a final concentration of 10% and the plates were incubated for one hour at 4° C. The plates were then washed 5 times with water and 100 μl of a Sulforhodamine B solution (4%) was added to each well. The plate was then incubated for 10 minutes at room temperature before removal of unbound dye by washing with 1% acetic acid.
(§9) The tubulin mutated, paclitaxel-resistant human ovarian carcinoma cell line 1A9-PTX10 and its parental paclitaxel-sensitive cell line 1A9 were derived from the A2780 human ovarian carcinoma cell line (J Biol Chem (1997) 272, 17118-17124).

1A9 = assay: SRB cytotoxicity, 1A9 parental cells; assay type: cell-based; settings: Homo sapiens, 72 h
Method: as §8, §9

NCI-Adr resistant = assay: SRB cytotoxicity, P-glycoprotein expressing cells with and without verapamil; assay type: cell-based; settings: Homo sapiens, NCI/ADR-RES, 72 h, SRB
Method: as §8

[6] = HCT-116, 72 h, Calcein AM, 72 h, read-out: HCT-116 IC50 Viability
[7] = HCT-116, plus 1 mg/ml alpha acidic glycoprotein and 45 mg/ml human serum albumin, read-out: HCT-116 IC50 Protein adjusted
[8] = 48 h exposure, read-out: HCT-116 IC50 Clonogenic 48 h
[9] = 24 h exposure, read-out: HCT-116 IC50 Clonogenic 24 h
[10] = HCT-116, non-protein adjusted, Table 4, read-out: HCT-116 viability IC50

SMILES	IC50 (HCT-116 cells [1]; [10])	IC50 (HCT-116 cells [1]; [6])	IC50 (HCT-116 cells [1]; [7])	IC50 [2]	IC50 [3]	IC50 [4]	IC50 (HCT-116 cells [5]; [9])	other results
Cc1cc(OCCN2CCCC2)ccc1-c1[nH]nc2c1C(=O)c1c(NC(=O)NN3CCN(C)CC3)cccc1-2 [L]	–	< 0.1 µM	< 1 µM	> 10 µM	> 10 µM	> 0.1 µM	–	IC50 (HCT-116 cells [5]; [8]): < 0.1 µM
O=C(Nc1cccc2c1C(=O)c1c-2n[nH]c1-c1ccc(OP(=O)(O)O)cc1)NN1CCOCC1 [J]	–	–	–	–	–	< 0.1 µM	–	IC50 (HCT-116 cells [1]; HCT-116, Calcein AM, 72 h, read-out: HCT-116 IC50 Viability): < 1 µM
O=C(Nc1cccc2c1C(=O)c1c-2n[nH]c1-c1ccc(OCCN2CCCC2)cc1)NN1CCOCC1 [Compound I]	–	< 0.1 µM	< 1 µM	< 0.1 µM	< 1 µM	< 0.1 µM	< 0.1 µM	IC50 (HCT-116 cells [5]; [8]): < 0.1 µM
CC(=O)O[C@@]12CO[C@@H]1C[C@H](O)[C@@]1(C)C(=O)[C@H](O)C3=C(C)[C@@H](OC(=O)[C@H](O)[C@@H](NC(=O)OC(C)(C)C)c4ccccc4)C[C@@](O)([C@@H](OC(=O)c4ccccc4)[C@H]21)C3(C)C [Taxotere, N-debenzoyl-N-tert-butoxycarbonyl-10-deacetyl paclitaxel, reference compound]	–	–	–	–	–	–	–	IC50 (1A9-PTX10): 0.16 µM; IC50 (1A9): 0.00175 µM; IC50 (NCI-Adr resistant; verapamil 12.5 μg/ml): 0.0363 µM; IC50 (NCI-Adr resistant; without verapamil): 3.31 µM
CN1CCN(NC(=O)Nc2cccc3c2C(=O)c2c-3n[nH]c2-c2ccc(OCCN(CCO)CCO)cc2)CC1 [N]	–	< 1 µM	< 1 µM	–	–	> 0.1 µM	–	–
CN1CCN(NC(=O)Nc2cccc3c2C(=O)c2c-3n[nH]c2-c2ccc(OCCN3CCC[C@H]3CO)cc2)CC1 [Compound M]	–	< 0.1 µM	< 1 µM	–	–	< 0.1 µM	< 0.1 µM	–
CN1CCN(NC(=O)Nc2cccc3c2C(=O)c2c-3n[nH]c2-c2ccc(OCCN3CCCC3)cc2)CC1 [F]	–	< 0.1 µM	< 0.1 µM	< 0.1 µM	< 1 µM	< 0.1 µM	< 1 µM	–
CN1CCN(NC(=O)Nc2cccc3c2C(=O)c2c-3n[nH]c2-c2ccc(OCCN3CC[C@H](O)C3)cc2)CC1 [O]	–	< 0.1 µM	< 1 µM	–	–	< 0.1 µM	< 0.01 µM	–
CCCN(CCOc1ccc(-c2[nH]nc3c2C(=O)c2c(NC(=O)NN4CCOCC4)cccc2-3)cc1)CC1CC1 [G]	–	< 0.1 µM	< 1 µM	< 0.1 µM	< 1 µM	< 0.1 µM	< 0.1 µM	IC50 (HCT-116 cells [5]; [8]): < 0.1 µM
O=C(Nc1cccc2c1C(=O)c1c-2n[nH]c1-c1ccc(OCCN(CCO)CCO)cc1)NN1CCOCC1 [H]	–	< 0.1 µM	< 1 µM	< 0.1 µM	> 10 µM	< 0.1 µM	< 1 µM	IC50 (HCT-116 cells [5]; [8]): < 0.1 µM
CC(C)N1CCN(Cc2cc(-c3[nH]nc4c3C(=O)c3c(NC(=O)NN5CCOCC5)cccc3-4)ccc2O)CC1 [K]	–	< 0.1 µM	< 1 µM	< 0.1 µM	< 10 µM	> 0.1 µM	< 1 µM	–
Cc1cc(-c2[nH]nc3c2C(=O)c2c(NC(=O)NN4CCN(C)CC4)cccc2-3)ccc1OCCN1CCCC1 [P]	–	< 0.01 µM	–	–	–	< 0.1 µM	< 0.1 µM	–
CN1CCN(NC(=O)Nc2cccc3c2C(=O)c2c-3n[nH]c2-c2ccc(OCCN3CCOCC3)cc2)CC1 [Q]	–	< 0.1 µM	< 1 µM	< 0.1 µM	< 10 µM	< 0.1 µM	< 0.1 µM	IC50 (HCT-116 cells [5]; 72 h exposure, read-out: HCT-116 IC50 Clonogenic 72 h): < 0.1 µM

Now from value to compound, other results behind:

IC50 (HCT-116 cells [1]; [10])	SMILES	IC50 (HCT-116 cells [1]; [6])	IC50 (HCT-116 cells [1]; [7])	IC50 [2]	IC50 [3]	IC50 [4]	IC50 (HCT-116 cells [5]; [9])	other results
< 0.1 µM	CN1CCN(NC(=O)Nc2cccc3c2C(=O)c2c-3n[nH]c2-c2ccc(OCCn3cccn3)cc2)CC1 [Compound A17]	–	–	–	–	–	–	–
< 0.1 µM	COCCN1CCN(C(=O)COc2ccc(-c3[nH]nc4c3C(=O)c3c(NC(=O)NN5CCOCC5)cccc3-4)cc2)CC1 [Compound C1]	–	–	–	–	–	–	–
< 0.1 µM	Cc1cc(OCCN2CCCC2)ccc1-c1[nH]nc2c1C(=O)c1c(NC(=O)NN3CCOCC3)cccc1-2 [Compound A29]	–	–	–	–	–	–	–
< 0.1 µM	Cc1cc(OCCCN2CCN(C(C)C)CC2)ccc1-c1[nH]nc2c1C(=O)c1c(NC(=O)NN3CCOCC3)cccc1-2 [Compound A21]	–	–	–	–	–	–	–
< 0.1 µM	Cc1cc(OCCN2CCCN(C)CC2)ccc1-c1[nH]nc2c1C(=O)c1c(NC(=O)NN3CCN(C)CC3)cccc1-2 [Compound A9]	–	–	–	–	–	–	–
< 0.1 µM	CN1CCN(NC(=O)Nc2cccc3c2C(=O)c2c(-c4ccc(OCCN5CCCC5)c(F)c4)n[nH]c2-3)CC1 [Compound A14]	–	–	–	–	–	–	–
< 0.1 µM	CC(C)OC(=O)CN1CCN(NC(=O)Nc2cccc3c2C(=O)c2c-3n[nH]c2-c2ccc(OCCN3CCCC3)cc2)CC1 [Compound A40]	–	–	–	–	–	–	–
< 0.1 µM	CN1CCN(NC(=O)Nc2cccc3c2C(=O)c2c-3n[nH]c2-c2ccc(O)cc2)CC1 [Compound A15]	–	–	–	–	–	–	–
< 0.1 µM	CC(C)C(N)C(=O)OCCN1CCN(NC(=O)Nc2cccc3c2C(=O)c2c-3n[nH]c2-c2ccc(OCCN3CCCC3)cc2)CC1 (stereo not drawn) [Compound A33]	–	–	–	–	–	–	–
